Measurements reported in US9969741B2, “Pyrazolotriazines as inhibitors of nucleases” (MASARYKOVA UNIVERZITA, priority 2014, dated 2018).
pIC50: −log10 of the molar value.

Molecular target: T1, MRE11 (Saccharomyces cerevisiae, UniProt P32829)
T1 construct: made in house; host or cells: S. cerevisiae protease-deficient strain BJ5464
T1 sequence (P32829 1-692): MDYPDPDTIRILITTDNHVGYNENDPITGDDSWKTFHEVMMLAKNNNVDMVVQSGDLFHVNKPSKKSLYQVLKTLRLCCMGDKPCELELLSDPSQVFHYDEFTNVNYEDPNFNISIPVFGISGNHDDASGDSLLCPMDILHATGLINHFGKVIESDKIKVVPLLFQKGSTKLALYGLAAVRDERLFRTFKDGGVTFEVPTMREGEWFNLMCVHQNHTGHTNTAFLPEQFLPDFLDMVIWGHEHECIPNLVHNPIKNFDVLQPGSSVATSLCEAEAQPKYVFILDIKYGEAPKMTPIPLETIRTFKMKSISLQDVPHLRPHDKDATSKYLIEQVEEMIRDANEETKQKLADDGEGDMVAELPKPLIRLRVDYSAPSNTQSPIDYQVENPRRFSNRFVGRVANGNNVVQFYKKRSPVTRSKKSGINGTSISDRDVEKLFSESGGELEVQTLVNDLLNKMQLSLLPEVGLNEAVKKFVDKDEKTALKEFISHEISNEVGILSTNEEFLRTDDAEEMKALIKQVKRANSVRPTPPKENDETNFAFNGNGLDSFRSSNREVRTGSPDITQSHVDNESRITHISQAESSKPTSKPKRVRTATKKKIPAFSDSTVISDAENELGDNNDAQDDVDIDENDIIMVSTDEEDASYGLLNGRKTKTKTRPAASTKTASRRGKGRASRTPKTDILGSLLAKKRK
Assay: Nuclease inhibition assay, MRE11 (5′ flap fluorescent DNA substrate, gel readout)
Format: biochemical, yeast
Settings: 5 nM enzyme, 5 nM 5′ flap substrate, 15 min at 30° C.
Description: In vitro assays were used for the determination of compound's IC50 values for inhibition of individual nucleases, i.e., MUS81/EME1, FEN1, EXO1, and MRE11. To generate IC50 values, concentration of compound was plotted against relative nuclease activity (in %). The dose-response curves were generated from inhibition data, from 5 point serial dilutions of inhibitory compounds, each in triplicate and fitted to a standard sigmoid curve. IC50 values were derived by standard nonlinear regression analysis.
All tested compounds were diluted in 100% DMSO (dimethylsulfoxide) to prepare working stocks with different concentrations. To keep the DMSO concentration constant in every reaction, always 0.5 μl of the compound stock was added to the reaction buffer. The reaction buffer differs depending on the enzyme tested. Also concentration of the compounds in the reaction depends on the particular enzyme, since the inhibitory effect of the compounds vary between the enzymes. Nevertheless, always doubling dilutions in the range 200-0.8 μM was used. The compound was added as the first component in the reaction buffer, followed by the enzyme addition. […]
For this experiment we prepared short fluorescently labeled oligonucleotide-based DNA substrates with specific structures reflecting the biochemical activities of tested individual nucleases (Table 1). […] For visualization, each substrate was labeled by fluorescent dye (fluorescein), which can be detected in the gel using appropriate imaging system (FLA-9000, Fuji) with filters for particular wavelengths (excitation: 485 nm, emission: 535 nm).
Nuclease assays were performed in reaction buffer specific for particular enzyme: MUS81/EME1 (50 mM Tris pH=7.5, 5 mM MgCl2, 1 mM DTT a 100 μg/ml BSA), MRE11 (30 mM Bis-Tris pH=7.0, 50 μg/ml BSA, 1 mM DTT a 250 μM MnCl2), EXO1 and FEN1 (50 mM Tris pH=7.5, 1 mM MgCl2, 1 mM DTT a 100 μg/ml BSA). […] Fluorescently labeled DNA was detected by FLA-9000 scanner (Fuji) and the result was evaluated using Multi-Gauge V3.2 software (Fuji). […]

CCc1nn2c(N)c(-c3nc4ccccc4[nH]3)nnc2c1-c1ccc(F)cc1 [Preparative Example 5A]
pIC50: < 4.30

Nc1c(-c2nc3ccccc3[nH]2)nnc2cc(-c3ccccc3)nn12 [Preparative Example 5C]
pIC50: < 4.30

Nc1c(-c2nc3ccccc3[nH]2)nnc2cc(-c3cccc4ccccc34)nn12 [Preparative Example 5K]
pIC50: > 4.30
